Experimental data published in PubChem BioAssay AID1963825 (Molecular Pharmacology Branch, DTP, NCI, 2024).

Assay: Anticancer human tumor 997537-175-T-J1-PDC patient-derived colon adenocarcinoma cell line growth inhibition [POLQ]
Settings: 997537-175-T-J1-PDC complex spheroid viability, combination with POLQ inhibitors; for IC50: curve of first compound; for viability, T/C: stronger effect = lower value
Experimental: Multicellular complex tumor spheroid response to Polymerase (POL) inhibitors (novobiocin, ART-558, RP6685) in combination with a variety of drugs and investigational agents in selected tumor cell lines
The POL inhibitors (novobiocin, ART-558, and RP6685) were evaluated both individually and in combination with standard of care and investigational anticancer small molecules within a complex spheroid model of solid tumors. . Complex spheroids include a stromal component modeled by human endothelial cells (HUVEC) and fibroblasts modeled by human mesenchymal stem cells (MSCs). The concentration ranges selected for each drug and investigational agent were based upon clinically achievable concentrations if the clinical Cmax of the agent was known.
Compounds. The drugs and investigational agents: novobiocin (NSC847541), ART-558 (NSC835418), RP-6685 (NSC848927), peposertib (NSC802822), ceralasertib (NSC780249), elimusertib (NSC800525), camonsertib (NSC841442), AZD-1390 (NSC803789), olaparib (NSC753686), talazoparib (NSC767125), rucaparib (NSC756644), sotorasib (NSC818433), MRTX-1133 (NSC836407), SN-38 (NSC673596), topotecan (NSC609699), epotoside (NSC141540), doxorubicin (NSC123127), gemcitabine (NSC613327), 5-fluorouracil (NSC19893), paclitaxel (NSC125973), vemurafenib (NSC761431), MSA-2 (NSC828583), SN-011 (NSC837082), adavosertib (NSC754352), prexasertib (NSC758257), carboplatin (NSC241240) and oxaliplatin (NSC266046), were obtained from the National Cancer Institute (NCI) Developmental Therapeutics Program Chemical Repository (21). The FDA-approved anticancer drug set is available from the Developmental Therapeutics Program at https://dtp.cancer.gov/organization/dscb/obtaining/. […] The stock solutions were prepared in dimethyl sulfoxide (DMSO, Sigma-Aldrich, St. Louis, MO, cat. D2650), except for the platinum compounds which were prepared in saline (Quality Biological, Gaithersburg, MD, cat. 114-055-101), at 800-fold the tested concentration and stored at -70 degrees C prior to their use. All drugs and investigational agents were tested over a range starting from a high concentration at or near the clinical Cmax and decreasing in half-log increments. If the clinical Cmax for an agent had not been determined, the highest concentration tested was 10 microM, except for SN-38, which was tested at a high concentration of 1 microM.
Cell Culture. All cells were maintained in an incubator at 37 degrees C and 5% CO2 with 95% humidity. The PDC lines were cultured according to standard operating procedures established by the NCI PDMR (https://pdmr.cancer.gov). Table 3 of the manuscript, lists the cell lines along with the number of the three cell types plated to form the mct-spheroids and media for tumor cell growth. After thawing, all PDC lines, except 997537-175-T-J1-PDC and 415267-285-R-J2-PDC, were cultured in Matrigel-coated flasks prepared with a working solution of 1X Ham's F-12 nutrient mix, without supplementation (Thermo Fisher Scientific, cat. 11765054), 100 U/mL penicillin-streptomycin (Thermo Fisher Scientific, cat. 15140122), and 2.5% Matrigel (Corning Inc., Corning, NY, cat. 354248) for the first three passages. The two PDC lines 997537-175-T-J1-PDC and 415267-285-R-J2-PDC were cultured on uncoated flasks. The 857933-349-R-J2-PDC line was cultured in 6C/Colon 1B media containing advanced DMEM/F-12 (Thermo Fisher Scientific, cat. 12634028), 10 mM HEPES (Thermo Fisher Scientific, cat. 15630080), 1X GlutaMAX supplement (Thermo Fisher Scientific, cat. 35050061), 0.1 mg/mL primocin (InvivoGen, San Diego, CA, cat. ant-pm-2), 10% defined fetal bovine serum, heat inactivated (HyClone Laboratories Inc., Logan, UT, cat. SH30070.03HI), 50% L-WRN conditioned media (ATCC, cat. CRL-3276), 1.25 mM N-Acetyl-L-cysteine (Sigma-Aldrich, cat. A9165), 10 mM nicotinamide (Sigma-Aldrich, cat. N0636), 1X B-27 supplement (Thermo Fisher Scientific, cat. 17504044), 1X N-2 supplement (Thermo Fisher Scientific, cat. […]
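Further: luminescence signal used as a surrogate for viable cells; spheroids exposed to drugs for seven days before readout.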

COc1cc(C2c3cc4c(cc3C(OC3OC5COC(C)OC5C(O)C3O)C3COC(=O)C23)OCO4)cc(OC)c1O (configuration not stated) + COC1C(OC(N)=O)C(O)C(Oc2ccc3c(O)c(NC(=O)c4ccc(O)c(CC=C(C)C)c4)c(=O)oc3c2C)OC1(C)C
IC50 (second compound 0.0316 µM): > 10 µM
IC50 (second compound 0.1 µM): > 10 µM
IC50 (second compound 0.316 µM): > 10 µM
IC50 (second compound 1 µM): > 10 µM
IC50 (second compound 3.16 µM): > 10 µM
IC50 (second compound 10 µM): > 10 µM
viability, T/C (second compound 0.0316 µM, first compound 0.0316 µM): 99.8%
viability, T/C (second compound 0.0316 µM, first compound 0.1 µM): 95%
viability, T/C (second compound 0.0316 µM, first compound 0.316 µM): 93.1%
viability, T/C (second compound 0.0316 µM, first compound 1 µM): 89.9%
viability, T/C (second compound 0.0316 µM, first compound 3.16 µM): 74.7%
viability, T/C (second compound 0.0316 µM, first compound 10 µM): 67.3%
viability, T/C (second compound 0.1 µM, first compound 0.0316 µM): 103%
viability, T/C (second compound 0.1 µM, first compound 0.1 µM): 114%
viability, T/C (second compound 0.1 µM, first compound 0.316 µM): 99.3%
viability, T/C (second compound 0.1 µM, first compound 1 µM): 93.7%
viability, T/C (second compound 0.1 µM, first compound 3.16 µM): 60.2%
viability, T/C (second compound 0.1 µM, first compound 10 µM): 88.5%
viability, T/C (second compound 0.316 µM, first compound 0.0316 µM): 97.3%
viability, T/C (second compound 0.316 µM, first compound 0.1 µM): 107%
viability, T/C (second compound 0.316 µM, first compound 0.316 µM): 99.2%
viability, T/C (second compound 0.316 µM, first compound 1 µM): 108%
viability, T/C (second compound 0.316 µM, first compound 3.16 µM): 92.3%
viability, T/C (second compound 0.316 µM, first compound 10 µM): 53.3%
viability, T/C (second compound 1 µM, first compound 0.0316 µM): 93.5%
viability, T/C (second compound 1 µM, first compound 0.1 µM): 105%
viability, T/C (second compound 1 µM, first compound 0.316 µM): 110%
viability, T/C (second compound 1 µM, first compound 1 µM): 83.9%
viability, T/C (second compound 1 µM, first compound 3.16 µM): 88.8%
viability, T/C (second compound 1 µM, first compound 10 µM): 55.5%
viability, T/C (second compound 3.16 µM, first compound 0.0316 µM): 109%
viability, T/C (second compound 3.16 µM, first compound 0.1 µM): 107%
viability, T/C (second compound 3.16 µM, first compound 0.316 µM): 87.7%
viability, T/C (second compound 3.16 µM, first compound 1 µM): 104%
viability, T/C (second compound 3.16 µM, first compound 3.16 µM): 63.5%
viability, T/C (second compound 3.16 µM, first compound 10 µM): 67.8%
viability, T/C (second compound 10 µM, first compound 0.0316 µM): 106%
viability, T/C (second compound 10 µM, first compound 0.1 µM): 107%
viability, T/C (second compound 10 µM, first compound 0.316 µM): 108%
viability, T/C (second compound 10 µM, first compound 1 µM): 100%
viability, T/C (second compound 10 µM, first compound 3.16 µM): 84.9%
viability, T/C (second compound 10 µM, first compound 10 µM): 66.1%
